The values below come from article PMC6151459, “Targeting PDE10A GAF Domain with Small Molecules: A Way for Allosteric Modulation with Anti-Inflammatory Effects” (Molecules : A Journal of Synthetic Chemistry and Natural …, 2017).

For orientation: IC50 means the midpoint of a concentration-inhibition curve. In general, inhibition refers to the relative decrease from the control value, in per cent.

The first experiment concerns PDE10A.
Assay: not given
As to conditions: reference compound; cited from earlier work. Set-up: method as in PMID 21705115.
On to `COc1ccc(Cc2nccc3cc(OC)c(OC)cc23)cc1OC` [Papaverine], for which the half-inhibitory concentration (IC50) was 19 nM.

The target of a further experiment is T1, human recombinant PDE10A2 (Homo sapiens, UniProt Q9Y233).
T1 construct: These compounds were tested against recombinant human full-length isoenzyme PDE10A; purchased Calbiochem 524739
T1 sequence (Q9Y233 267-1055): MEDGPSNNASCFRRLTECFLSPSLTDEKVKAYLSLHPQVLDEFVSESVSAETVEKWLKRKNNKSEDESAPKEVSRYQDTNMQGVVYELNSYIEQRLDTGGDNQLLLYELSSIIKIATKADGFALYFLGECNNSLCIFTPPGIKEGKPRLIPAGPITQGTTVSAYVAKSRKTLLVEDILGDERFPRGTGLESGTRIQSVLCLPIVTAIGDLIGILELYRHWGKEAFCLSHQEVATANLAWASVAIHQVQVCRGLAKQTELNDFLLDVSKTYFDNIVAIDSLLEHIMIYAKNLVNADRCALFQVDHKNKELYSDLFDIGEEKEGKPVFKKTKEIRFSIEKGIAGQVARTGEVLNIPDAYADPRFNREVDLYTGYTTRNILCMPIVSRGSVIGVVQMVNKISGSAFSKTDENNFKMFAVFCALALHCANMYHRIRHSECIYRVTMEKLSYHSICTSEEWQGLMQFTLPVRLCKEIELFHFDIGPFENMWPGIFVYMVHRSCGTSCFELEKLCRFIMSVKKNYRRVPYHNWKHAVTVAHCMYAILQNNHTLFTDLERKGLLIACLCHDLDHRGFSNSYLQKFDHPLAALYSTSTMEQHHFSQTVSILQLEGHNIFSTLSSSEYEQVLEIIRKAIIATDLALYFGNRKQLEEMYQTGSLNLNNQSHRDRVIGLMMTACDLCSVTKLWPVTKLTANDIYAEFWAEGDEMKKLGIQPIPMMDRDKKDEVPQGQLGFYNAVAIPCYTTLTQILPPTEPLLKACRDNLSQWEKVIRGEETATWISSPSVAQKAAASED
Briefly: Radiometric phosphodiesterase inhibition assay (SPA, [3H]cAMP). The experiment is classed as biochemical. To be noted: fixed compound concentration of 10 µM; read-out: percentage of inhibition of PDE10A. How it is done: The methodology used for measuring human recombinant PDE10A2 activity was based in a Scintillation Proximity Assay (SPA) from Perkin Elmer (TRKQ7090).
After the incubation time, 50 µL of a solution of SPA-beads (approximately 1 mg per well) were added to each well and the plate was shaken for 1 h at room temperature. Finally, beads were settled for 30 min and radioactivity was detected in a Microbeta Trilux reader (Perkin Elmer, Shelton, CT, USA).
IC50 values were calculated by non-linear regression fitting using the GraphPad Prism. Data (radioactivity vs. log concentration) was fitted to a sigmoidal dose-response equation: Y = Bottom + (Top-Bottom)/(1 + 10^[…]), where Bottom and Top were the minimum and maximal inhibition for PDE, respectively, IC50 was the concentration of the compound that inhibited the PDE activity in a 50%, and n was the slope of the concentration-response curve.
For the compound `O=C(Cc1ccccc1)Sc1ncnc2[nH]cnc12` [Compound 2], the inhibition at 10 µM is 40%. Still for that read-out and setting: with `O=C(O)COC(=O)CNC(=O)c1ccccc1` [Compound 3] the figure was 7%; with `Cc1ccc(-n2nc(C(C)(C)C)cc2N)cc1` [Compound 9], 3%. Turning to `CC(=O)NNC(=O)c1c(O)n(C)c2ccccc2c1=O` [Compound 10], the inhibition at 10 µM came to 2%. On the same count and under the same terms, with `O=C(Cc1cccc(Cl)c1)Nc1nc2ccccc2s1` [Compound 11] the figure was 44%; with `O=S1(=O)N=C(O)c2cc(-c3ccccc3)sc2N1` [Compound 12], 3%; with `O=Cc1nc(-c2ccc(Cl)cc2)ns1` [Compound 13], 15%.

Consider `CC(=O)C1=C(c2c(C)[nH]c3ccccc23)C(=O)NC1=O` [Compound 14], for which the inhibition at 10 µM stood at 24%.

Staying with this experiment, now noted: recombinant human full-length PDE10A.
`CC(=O)C1=C(c2ccc(C#N)cc2)C(=O)NC1=O` [Compound 1]: the IC50 was found to be 4.6 µM.

For `CC(=O)C1=C(c2c[nH]c3ccccc23)C(=O)NC1=O` [Compound 4], the half-maximal inhibitory concentration (IC50) worked out at 10.2 µM.

For `COc1ccc(-c2n/c(=N/Cc3cccnc3)sn2-c2ccccc2)cc1` [Compound 5], the IC50 is 1.8 µM. Take `CC(=O)C1=C(c2c[nH]c3ncccc23)C(=O)NC1=O` [Compound 7]: the 50% inhibitory concentration (IC50) is 8.2 µM. The same measure, in the same setting: with `CC(=O)C1=C(c2cn(C)c3ncccc23)C(=O)NC1=O` [Compound 15] the figure was 6.5 µM.

Turning to `O=C(CBr)C1=C(c2c[nH]c3ccccc23)C(=O)NC1=O` [Compound 16], the IC50 came to 2.4 µM. Still for that read-out and setting: in the case of `CC(=O)C1=C(c2cn(C)c3ccccc23)C(=O)NC1=O` [Compound 17] it was 8.2 µM; in that of `Cn1cc(C2=C(C(=O)CBr)C(=O)NC2=O)c2ccccc21` [Compound 18], 2.9 µM.

Another experiment deals with Raw 264.7 cells. Nature of the experiment: Inhibition of nitrite production in LPS-stimulated murine macrophages (Griess reaction). As to conditions: inhibitors 10 μM, 1 h pretreatment, LPS 10 μg mL−1, 24 h, versus LPS-treated cells. The experiment is classed as cell-based. The text has this:
Finally, to explore the anti-inflammatory potential of the new allosteric PDE10A inhibitors here described, a cell-based assay was used. We have determined differences in nitrite production of Raw 264.7 cells after they were damaged with bacterial lipopolysaccharide (LPS) and treated with selected inhibitors. First, the effect of the compounds on cell viability was examined at various concentrations showing […] significant cytotoxic effect in the present experiments (data not shown).
Figure 4 Raw 264.7 cells were incubated for 24 h with lipopolysaccharide (LPS; 10 μg mL^−1) in the absence or presence of various Phosphodiesterase (PDE) inhibitors (10 μM), and the production of nitrite was evaluated by the Griess reaction. Cells were pretreated with inhibitors for 1 h before lipopolysaccharide (LPS) stimulation. Values represent the mean ± SD from two independent experiments. *: p < 0.05; **: p < 0.01 versus LPS-treated cells.
The content of nitrite, one of the end products of NO oxidation, was monitored by a procedure based on the diazotidation of nitrite by sulfanilic acid (Griess reaction). […] The absorbance (520 nm) of the mixture was measured on a microplate reader. The concentration of nitrite was calculated with the linear equation derived from the standard curve generated by known concentrations of sodium nitrite.
`CC(=O)C1=C(c2c[nH]c3ccccc23)C(=O)NC1=O` [Compound 4]: the nitrite production result is given as “significantly decreased”. The same measure, in the same setting: with `COc1ccc(-c2n/c(=N/Cc3cccnc3)sn2-c2ccccc2)cc1` [Compound 5] the entry was “significantly decreased”.
